What was measured:
Type in all cases: functional, cell-based
Caov-3 cell line = experiment: In vitro cytotoxicity against human tumor cell line CAOV-3
HEC-1B cell line = experiment: In vitro cytotoxicity against human tumor cell line HEC-1-B
A549 = experiment: In vitro cytotoxicity against human tumor cell line A549
[1] = tested on: KATO III stomach cancer cell line; experiment: In vitro cytotoxicity against human tumor cell line KATO-III
DLD-1 = experiment: In vitro cytotoxicity against human tumor cell line DLD-1

Structure (SMILES) | IC50 (Caov-3 cell line) | IC50 (HEC-1B cell line) | IC50 (A549) | IC50 [1] | IC50 (DLD-1)
CCCCNCCc1c2c(nc3cc4c(cc13)OCCO4)-c1cc3c(c(=O)n1C2)COC(=O)C3(O)CC (stereo not drawn) | 7120 nM | 3650 nM |  |  | 
CCNCCc1c2c(nc3cc4c(cc13)OCO4)-c1cc3c(c(=O)n1C2)COC(=O)C3(O)CC (stereo not drawn) | 33000 nM | 6060 nM | 0.094 nM | 2.9 nM | 
CCCNCCc1c2c(nc3cc4c(cc13)OCO4)-c1cc3c(c(=O)n1C2)COC(=O)C3(O)CC (stereo not drawn) | 63000 nM | 2110 nM | 0.11 nM |  | 26 nM
CCC1(O)C(=O)OCc2c1cc1n(c2=O)Cc2c-1nc1cc3c(cc1c2CCNC(C)C)OCCO3 (stereo not drawn) | 2320 nM | 12800 nM |  |  | 
CCC1(O)C(=O)OCc2c1cc1n(c2=O)Cc2c-1nc1cc3c(cc1c2CCNCC(C)C)OCCO3 (stereo not drawn) | 7120 nM | 3650 nM |  |  | 
CCCCNCCc1c2c(nc3cc4c(cc13)OCO4)-c1cc3c(c(=O)n1C2)COC(=O)C3(O)CC (stereo not drawn) | 62000 nM | 4680 nM |  |  | 
CCC(C)NCCc1c2c(nc3cc4c(cc13)OCCO4)-c1cc3c(c(=O)n1C2)COC(=O)C3(O)CC (stereo not drawn) | 2000 nM | 3290 nM |  |  | 
CCC(C)NCCc1c2c(nc3cc4c(cc13)OCO4)-c1cc3c(c(=O)n1C2)COC(=O)C3(O)CC (stereo not drawn) | 1510 nM | 14800 nM |  |  | 
CCC(C)CNCCc1c2c(nc3cc4c(cc13)OCO4)-c1cc3c(c(=O)n1C2)COC(=O)C3(O)CC (stereo not drawn) | 6570 nM | 2710 nM |  |  | 
CCCNCCc1c2c(nc3cc4c(cc13)OCCO4)-c1cc3c(c(=O)n1C2)COC(=O)C3(O)CC (stereo not drawn) | > 100000 nM | > 100000 nM |  |  | 
CCC1(O)C(=O)OCc2c1cc1n(c2=O)Cc2c-1nc1ccccc1c2CCNC(C)C (stereo not drawn) |  |  | 0.26 nM | 1.6 nM | 7.3 nM
CCC1(O)C(=O)OCc2c1cc1n(c2=O)Cc2c-1nc1cc3c(cc1c2CCNCC(C)C)OCO3 (stereo not drawn) | 21900 nM | 10000 nM |  |  | 
CCNCCc1c2c(nc3cc4c(cc13)OCCO4)-c1cc3c(c(=O)n1C2)COC(=O)C3(O)CC (stereo not drawn) |  | 190 nM | 0.5 nM |  | 
CCC1(O)C(=O)OCc2c1cc1n(c2=O)Cc2c-1nc1cc3c(cc1c2CCNC(C)C)OCO3 (stereo not drawn) |  | 670 nM |  | 45 nM | 8.9 nM
CCN(CC)CCNCCc1c2c(nc3cc4c(cc13)OCCO4)-c1cc3c(c(=O)n1C2)COC(=O)C3(O)CC (stereo not drawn) | > 100000 nM | 12100 nM |  |  | 
CCC(C)CNCCc1c2c(nc3cc4c(cc13)OCCO4)-c1cc3c(c(=O)n1C2)COC(=O)C3(O)CC (stereo not drawn) | 3500 nM | 3440 nM |  |  | 
CC[C@@]1(O)C(=O)OCc2c1cc1n(c2=O)Cc2cc3ccccc3nc2-1 [CAMPTOTHECIN] | 2.9 nM | 60 nM | 0.33 nM | 46 nM | 14 nM
